This note sets out measurements from patent US20080207573A1, “COMPOUNDS FOR TREATING VIRAL INFECTIONS” (priority 2006, published 2008).

Read-outs that look alike come from different tables or passages of the source. Some results are limits rather than exact numbers.

For orientation: EC50 means the midpoint of the concentration-response curve. As a reminder, the IC50 is the midpoint of a concentration-inhibition curve. A lower IC50 goes with higher potency.

The test system of series [1] is HIV-1 laboratory strain, NL4-3. In words: MT-4 Cytoprotection Assay (protection from HIV-induced cytopathic effect, WST-1 readout). Format: cell-based. Here is the method:
MT-4 Cytoprotection Assay
The HTLV-1 transformed T cell line, MT-4, is highly susceptible to HIV-1 infection. Anti-HIV-1 agents were evaluated in this target cell line by protection from the HIV-induced cytopathic effect. In this assay, viability of both HIV-1 and mock-infected cells was assessed in a […] assay that monitors the ability of metabolically-active cells to reduce the tetrazolium salt WST-1. Cytoprotection by antiviral compounds is indicated by the positive readout of increased WST-1 cleavage.
Briefly, exponentially growing MT-4 cells were mock-infected or batch-infected with the HIV-1 laboratory strain, NL4-3, at a multiplicity of infection of 0.0005. Following a two hour infection, the cells were washed to remove unbound virus and plated in the presence of increasing concentrations of compound. After four days incubation, cytoprotection in the infected cells and compound toxicity in mock-infected cells were analyzed using the WST-1 assay.
(Cytopathic effects are the visible damage that an infection or toxin causes in cultured cells.)

Series [2] concerns HIV-1IIIB. In words: PBMC Drug Susceptibility Assay (HIV-1 p24 in supernatant). It is filed as cell-based. The note with it: Human immunodeficiency virus 1, PBMC, 168 h, HIV-1IIIB-infected human PBMCs, seven days. The source says: PBMC Drug Susceptibility Assay
Human peripheral blood mononuclear cells (PBMCS) were used to test compound antiviral activity as an indicator for clinical efficacy. PBMCs were isolated from two donors using a Ficoll-Hypaque density gradient, pooled and stimulated with PHA-L for three days. After stimulation, the cells were washed and maintained in culture medium containing IL-2. The stimulated cells were then mock-infected or batch-infected with the strain HIV-1IIIB at MOI 0.01 for one hour. Cells (unwashed) were then plated in the presence of increasing concentrations of compound and incubated for seven days. […] Compound toxicity in mock-infected cells was analyzed using the WST-1 assay.

Series [3] is described as follows: Human Liver Microsome Assay (metabolic stability). It is filed as in vitro ADME. The note with it: human liver microsomes 0.5 mg/mL, test article 1 μM; for half-life at 1 μM: pH 7.4, read-out: Metabolic Stability in Human liver Microsomes T1/2. On the procedure:
Human Liver Microsome Assay
The microsomal fraction of liver homogenates contains endoplasmic reticulum derived cytochrome P450 enzymes that constitute the major phase I drug metabolizing enzymes. Briefly, to aid prediction of the in vivo rate of clearance of a dosed test article, an in vitro incubation containing human liver microsomes (0.5 mg/mL final protein concentration) and test article (1 μM incubation concentration) in the presence and absence of the necessary cofactor NADPH (1 mM incubation concentration) is conducted. The incubation is performed in a buffered aqueous system (100 mM potassium phosphate, pH 7.4). The concentration of the parent compound is determined using liquid chromatography coupled with tandem mass spectrometry and reported as percent remaining from a zero minute concentrations.
(Microsomes from liver hold many membrane-bound enzymes, among them those of drug oxidation.)

Where [4] appears, read: Human immunodeficiency virus 1, NL43, MT4, Table 7, MT-4 cells, HIV-1 NL4-3, read-out: MT4 EC50.
Where [5] appears, read: Human immunodeficiency virus 1, NL43, list of representative compounds, read-out: EC50 of less than about 100 nm (representative compounds).

`C=C(C)[C@@H]1CC[C@]2(C(=O)NCc3ccc(F)cc3C(=O)O)CC[C@]3(C)C(CCC4[C@@]5(C)CCC(OC(=O)CC(C)(C)C(=O)O)C(C)(C)C5CC[C@]43C)C12` (stereo partly shown) [Compound 128]: the EC50 in series [1] (setting [4]) worked out at 0.028 µM. Moreover, in series [2] (Table 7), the IC50 came out at 0.0036 µM. With `C=C(C)[C@@H]1CC[C@]2(C(=O)NC3(c4ccccn4)CC3)CC[C@]3(C)[C@H](CC[C@@H]4[C@@]5(C)CC[C@H](OC(=O)CC(C)(C)C(=O)O)C(C)(C)[C@@H]5CC[C@]43C)[C@@H]12` [Compound 121], in series [1] (setting [5]), the EC50 was < 0.1 µM. In series [2] (Table 6), the midpoint of inhibition, the IC50, lay at 0.018 µM. In series [3], the “Metabolic Stability in Human liver Microsomes % compound remaining at 40 minutes” value is recorded as 42% and the half-life at 1 μM is 30 min.

With `C=C(C)[C@@H]1CC[C@]2(C(=O)NCc3ccc4cccc(O)c4n3)CC[C@]3(C)C(CCC4[C@@]5(C)CCC(OC(=O)CC(C)(C)C(=O)O)C(C)(C)C5CC[C@]43C)C12` (stereo partly shown) [Compound 131], the EC50 in series [1] (setting [4]) stood at 0.003 µM. In series [2] (Table 7), this compound showed an IC50 of 0.0035 µM. For `C=C(C)[C@@H]1CC[C@]2(C(=O)NCc3ccc4c(c3)OCO4)CC[C@]3(C)[C@H](CC[C@@H]4[C@@]5(C)CC[C@H](OC(=O)CC(C)(C)C(=O)O)C(C)(C)[C@@H]5CC[C@]43C)[C@@H]12` [Compound 82], the EC50 in series [1] (setting [5]) is < 0.1 µM. Take `C=C(C)[C@@H]1CC[C@]2(C(=O)NCc3c(C)coc3C(F)(F)F)CC[C@]3(C)[C@H](CC[C@@H]4[C@@]5(C)CC[C@H](OC(=O)CC(C)(C)C(=O)O)C(C)(C)[C@@H]5CC[C@]43C)[C@@H]12` [Compound 101]: the EC50 in series [1] (setting [5]) was < 0.1 µM.

With `C=C(C)[C@@H]1CC[C@]2(C(=O)NCc3cccc4ccccc34)CC[C@]3(C)[C@H](CC[C@@H]4[C@@]5(C)CC[C@H](OC(=O)CC(C)(C)C(=O)O)C(C)(C)[C@@H]5CC[C@]43C)[C@@H]12` [Compound 94], in series [1] (setting [5]), the EC50 is < 0.1 µM. On the same count and under the same terms, the result for `C=C(C)[C@@H]1CC[C@]2(C(=O)NCCOc3ccc(OC)cc3)CC[C@]3(C)[C@H](CC[C@@H]4[C@@]5(C)CC[C@H](OC(=O)CC(C)(C)C(=O)O)C(C)(C)[C@@H]5CC[C@]43C)[C@@H]12` [Compound 97] reads < 0.1 µM; that for `C=C(C)[C@@H]1CC[C@]2(C(=O)NCc3cccc(C)n3)CC[C@]3(C)[C@H](CC[C@@H]4[C@@]5(C)CC[C@H](OC(=O)CC(C)(C)C(=O)O)C(C)(C)[C@@H]5CC[C@]43C)[C@@H]12` [Compound 108], < 0.1 µM; that for `C=C(C)[C@@H]1CC[C@]2(C(=O)NCc3ccccc3OC)CC[C@]3(C)[C@H](CC[C@@H]4[C@@]5(C)CC[C@H](OC(=O)CC(C)(C)C(=O)O)C(C)(C)[C@@H]5CC[C@]43C)[C@@H]12` [Compound 78], < 0.1 µM.

With `C=C(C)[C@@H]1CC[C@]2(C(=O)N[C@H](C)c3ccccn3)CC[C@]3(C)C(CCC4[C@@]5(C)CCC(OC(=O)CC(C)(C)C(=O)O)C(C)(C)C5CC[C@]43C)C12` (single isomer, unassigned) [Compound 105a], half-maximal inhibition in series [2] (Table 6) (IC50) required 0.0026 µM. In addition, in series [3], the “Metabolic Stability in Human liver Microsomes % compound remaining at 40 minutes” value came to 44% and the half-life at 1 μM is 36 min. `C=C(C)[C@@H]1CC[C@]2(C(=O)NCc3cccnc3C(=O)O)CC[C@]3(C)C(CCC4[C@@]5(C)CCC(OC(=O)CC(C)(C)C(=O)O)C(C)(C)C5CC[C@]43C)C12` (stereo partly shown) [Compound 130]: the half-maximal effective concentration (EC50) in series [1] (setting [4]) is 0.024 µM. Half-maximal inhibition in series [2] (Table 7) (IC50) was put at 0.044 µM. On to `C=C(C)[C@@H]1CC[C@]2(C(=O)NCc3ccco3)CC[C@]3(C)[C@H](CC[C@@H]4[C@@]5(C)CC[C@H](OC(=O)CC(C)(C)C(=O)O)C(C)(C)[C@@H]5CC[C@]43C)[C@@H]12` [Compound 74], for which the EC50 in series [1] (setting [5]) was < 0.1 µM.

Take `C=C(C)[C@@H]1CC[C@]2(C(=O)NC(Cc3ccc(OC)cc3)C(=O)O)CC[C@]3(C)[C@H](CC[C@@H]4[C@@]5(C)CC[C@H](OC(=O)CC(C)(C)C(=O)O)C(C)(C)[C@@H]5CC[C@]43C)[C@@H]12` (stereo partly shown) [Compound 119]: the EC50 in series [1] (setting [5]) was < 0.1 µM. Regarding `CC(C)[C@@H]1CC[C@]2(C(=O)NCC3CCCO3)CC[C@]3(C)[C@H](CC[C@@H]4[C@@]5(C)CC[C@H](OC(=O)CC(C)(C)C(=O)O)C(C)(C)[C@@H]5CC[C@]43C)[C@@H]12` (stereo partly shown) [Compound 123], the EC50 in series [1] (setting [5]) is < 0.1 µM.

In the case of `C=C(C)[C@@H]1CC[C@]2(C(=O)NC(Cc3ccccc3)C(=O)O)CC[C@]3(C)[C@H](CC[C@@H]4[C@@]5(C)CC[C@H](OC(=O)CC(C)(C)C(=O)O)C(C)(C)[C@@H]5CC[C@]43C)[C@@H]12` (stereo partly shown) [Compound 115], the EC50 in series [1] (setting [5]) was < 0.1 µM.

Consider `C=C(C)[C@@H]1CC[C@]2(C(=O)NCc3ccncc3)CC[C@]3(C)[C@H](CC[C@@H]4[C@@]5(C)CC[C@H](OC(=O)CC(C)(C)C(=O)O)C(C)(C)[C@@H]5CC[C@]43C)[C@@H]12` [Compound 75], for which the concentration for a half-maximal effect (EC50) in series [1] (setting [5]) is < 0.1 µM. On the same count and under the same terms, the result for `C=C(C)[C@@H]1CC[C@]2(C(=O)NCc3cccc(OC)c3)CC[C@]3(C)[C@H](CC[C@@H]4[C@@]5(C)CC[C@H](OC(=O)CC(C)(C)C(=O)O)C(C)(C)[C@@H]5CC[C@]43C)[C@@H]12` [Compound 79] reads < 0.1 µM. Regarding `C=C(C)[C@@H]1CC[C@]2(C(=O)N[C@@H](C)c3cccc[n+]3[O-])CC[C@]3(C)C(CCC4[C@@]5(C)CCC(OC(=O)CC(C)(C)C(=O)O)C(C)(C)C5CC[C@]43C)C12` (stereo partly shown) [Compound 132], the EC50 in series [1] (setting [4]) was found to be 0.036 µM. Also, the concentration for half-maximal inhibition (IC50) in series [2] (Table 7) came out at 0.044 µM. For `C=C(C)[C@@H]1CC[C@]2(C(=O)NCCc3ccc(C(=O)O)cc3)CC[C@]3(C)[C@H](CC[C@@H]4[C@@]5(C)CC[C@H](OC(=O)CC(C)(C)C(=O)O)C(C)(C)[C@@H]5CC[C@]43C)[C@@H]12` [Compound 100], in series [1] (setting [5]), the EC50 was < 0.1 µM. In series [2] (Table 6), `C=C(C)[C@@H]1CC[C@]2(C(=O)N[C@@H](C)c3ccccn3)CC[C@]3(C)C(CCC4[C@@]5(C)CCC(OC(=O)CC(C)(C)C(=O)O)C(C)(C)C5CC[C@]43C)C12` (single isomer, unassigned) [Compound 105b] displayed an IC50 of 0.0031 µM. In addition, in series [3], the “Metabolic Stability in Human liver Microsomes % compound remaining at 40 minutes” value is given as 32% and the half-life at 1 μM came out at 27 min.

Take `C=C(C)[C@@H]1CC[C@]2(C(=O)NCCCc3ccc(OC)c(OC)c3)CC[C@]3(C)[C@H](CC[C@@H]4[C@@]5(C)CC[C@H](OC(=O)CC(C)(C)C(=O)O)C(C)(C)[C@@H]5CC[C@]43C)[C@@H]12` [Compound 102]: in series [1] (setting [5]), the EC50 was < 0.1 µM. Turning to `C=C(C)[C@@H]1CC[C@]2(C(=O)NC(C)(C)c3ccccn3)CC[C@]3(C)C(CCC4[C@@]5(C)CCC(OC(=O)CC(C)(C)C(=O)O)C(C)(C)C5CC[C@]43C)C12` (stereo partly shown) [Compound 126], the midpoint of inhibition in series [2] (Table 6), the IC50, lay at 0.0475 µM. For the same compound, in series [3], the “Metabolic Stability in Human liver Microsomes % compound remaining at 40 minutes” value is 47% and the half-life at 1 μM worked out at 38 min.

`C=C(C)[C@@H]1CC[C@]2(C(=O)NCc3cc(C)ccn3)CC[C@]3(C)[C@H](CC[C@@H]4[C@@]5(C)CC[C@H](OC(=O)CC(C)(C)C(=O)O)C(C)(C)[C@@H]5CC[C@]43C)[C@@H]12` [Compound 112]: the EC50 in series [1] (setting [5]) was < 0.1 µM.

With `C=C(C)[C@@H]1CC[C@]2(C(=O)NCc3ccc(Cl)cn3)CC[C@]3(C)[C@H](CC[C@@H]4[C@@]5(C)CC[C@H](OC(=O)CC(C)(C)C(=O)O)C(C)(C)[C@@H]5CC[C@]43C)[C@@H]12` [Compound 114], the EC50 in series [1] (setting [5]) was < 0.1 µM.
